Test results published in patent US20130053434A1, “IRREVERSIBLE INHIBITORS USEFUL FOR THE TREATMENT OF KINASE-RELATED PATHOLOGIES” (CENTRE NATIONAL DE LA RECHERCHE SCIENTIFIQUE, priority 2009, published 2013).
Where two headings read alike, the source gives them in different places.

Tests used:
[1] = system: orthotopically implanted RENCA-LN cells; test: orthotopic murine renal cell carcinoma (RENCA) model, in vivo efficacy; conditions: untreated group had two animals; groups of 12
Description: RENCA-LN cells were obtained and cultured as described above. Sixty female BALB/c mice of 5 to 6 weeks were orthotopically implanted RENCA-LN cells into the left kidney (4×10^5 cells in 25 μl aliquots into the subcapsular space through a flank incision, Day 0). The mice were randomly divided into 5 groups of 12 mice each. On day 2, therapy was initiated. Animals in the vehicle control group (group 1) received 10 ml/kg Vehicle (PBS w/o Ca/Mg, 10% DMSO, 40% PEG-300) i.p. once daily until day 19. Animals of positive control group (group 2) received 40 mg/kg Sunitinib (Sutent®) p.o. once daily until day 20. Animals of treatment group 3 and 4 received 20 mg/kg of 3 once daily and every other day respectively (i.p.). Animals of treatment group 5 received 20 mg/kg of 5 once daily (i.p.). Due to partial weight loss, therapy in Groups 3 and 5 was suspended on days 11 and 12 and stopped on day 17. On day 20, the study was terminated and a necropsy performed. All animals were weighted, anaesthetised by isoflurane and killed by exsanguination. Two animals in group 1 were found dead on day 19 and 1 animal in group 3 and 5 on day 11 and 9 respectively. At necropsy, primary tumor weight and volume, lung weight and number of lung metastases were determined. Primary tumor tissues were collected and divided into two parts. One part of each tumor was snap-frozen in liquid nitrogen and stored at −80° C. whereas the other part was analyzed via ex vivo bioluminescence imaging. During the course of the study, the growth of the orthotopically implanted RENCA tumors was monitored on days 7, 14 and 19 using in vivo bioluminescence imaging. For this purpose, luciferin was injected intraperitoneally (i.p.) into the mice and light emission was measured post injection (10 min) using a NightOWL LB 981 bioluminescence imaging system (Berthold Technologies, Germany). The migration of RENCA tumor cells into the lung (metastasis) was analyzed post necropsy by counting nodules and using the luciferase assay. For this purpose, lungs were collected, homogenized, and assayed for luciferase activity using the kit from Promega (E1501) according to the manufacturer's instructions. Protein concentrations were determined using a Bradford assay and used to normalize luciferase activities (except for the primary tumor). A histological examination of the tumor vasculature was performed. For this purpose, cryosections of primary tumor tissues (thickness=5-10 μm) from the snap-frozen portion of the organ and blood vessels were visualized by immunohistochemical staining for CD 31 (PECAM-1; PharMingen, San Diego, Calif.). […] Statistical analysis of efficacy data was done using the Mann Whitney test.

[2] = ester bond, DIAD/PPh3, toluene, 23.0 °C, 2.0 h
panel of kinases (402) = test: larger panel of kinases (402), competition binding, whole panel; conditions: 1 μM
Description: (§1) Two representative library members (1afh and 1bgi) were then evaluated in a larger panel of kinases (402) using the technology described by Lockhart et al. (M. A. Fabian, et al., Nat. Biotechnol. 2005, 23, 329-336; M. W. Karaman, et al., Nat. Biotechnol. 2008, 26, 127-132). In this panel, 31 kinases out of the 46 kinases bioinformatically identified by Santi and coworkers are present along with numerous other kinases bearing a cysteine residue at other positions within the ATP-binding pocket (J. Zhang, P. L. Yang, N. S. Gray, Nat. Rev. Cancer 2009, 9, 28-39).
(§2) The selectivity profile was measure using the KinomeScan™ technology (http://www.kinomescan.com/) based on active-site dependent competition binding assay (Karaman, M. W., et al. (2008) Nat. Biotechnol. 26, 127-32; Fabian, M. A., et al. (2005) Nat. Biotechnol. 23, 329-36). Compounds 3 and 5 were profiled against a panel of 50 kinases including 42 kinases from the group of 48 kinases predicted by Santi et al. (Schirmer, A., et al. (2006) Proc. Natl. Acad. Sci. USA 103, 4234-9) to be targeted by hypothemycin and 5 mutants of FLT3 as well as 3 mutants of KIT. Both compounds were assayed at 1 μM. The results are expressed as a percentage of signal between a negative (DMSO) and positive (know binder) control [(test compound−positive control)/([…])×100].

Flt1 = biological target: T1, Flt1 (Homo sapiens, UniProt P17948); test: panel of 402 kinases: Flt1; assay type: binding; conditions: 1 μM
T1 construct: purchased KinomeScan
Description: as §1, §2

MEK4 = biological target: T2, MEK4 (Homo sapiens, UniProt P45985); test: panel of 402 kinases: MEK4; assay type: binding; conditions: read-out: residual activity relatively to control
T2 construct: purchased KinomeScan
Description: as §1, §2

PDGFRβ = biological target: T3, PDGFRβ (Homo sapiens, UniProt P09619); test: panel of 402 kinases: PDGFRβ; assay type: binding; conditions: 1 μM
T3 construct: purchased KinomeScan
Description: as §1, §2

Flt3 D835Y = Flt3 D835Y (Homo sapiens, UniProt P36888, D835Y); test: kinase mutants: Flt3 D835Y; assay type: binding; conditions: gain of function mutation
Description: as §1
(§3) The two compounds were also evaluated against a series of mutations of Flt3 and KIT. It is known that several mutation in Flt3 lead to a gain of function or constitutive activity.

Flt3 K663Q = Flt3 K663Q (Homo sapiens, UniProt P36888, K663Q); test: kinase mutants: Flt3 K663Q; assay type: binding; conditions: gain of function mutation
Description: as §1, §3

Flt3 N841L = test: kinase mutants: Flt3 N841L; assay type: binding; conditions: gain of function mutation
Description: as §1, §3

KIT D816V = KIT D816V (Homo sapiens, UniProt P10721, D816V); test: kinase mutants: KIT D816V; assay type: binding; conditions: gain of function mutation
Description: as §1, §3

KIT L576P = KIT L576P (Homo sapiens, UniProt P10721, L576P); test: kinase mutants: KIT L576P; assay type: binding; conditions: gain of function mutation
Description: as §1, §3

KIT V559D = KIT V559D (Homo sapiens, UniProt P10721, V559D); test: kinase mutants: KIT V559D; assay type: binding; conditions: gain of function mutation
Description: as §1, §3

KIT V559D, T670I = KIT V559D, T670I (Homo sapiens, UniProt P10721, T670I/V559D); test: kinase mutants: KIT V559D, T670I; assay type: binding; conditions: dual mutation conferring resistance to imatinib
Description: as §1, §3

KIT V559D, V654A = KIT V559D, V654A (Homo sapiens, UniProt P10721, V559D/V654A); test: kinase mutants: KIT V559D, V654A; assay type: binding; conditions: dual mutation conferring resistance to imatinib
Description: as §1, §3

T3 sequence (P09619 33-1106): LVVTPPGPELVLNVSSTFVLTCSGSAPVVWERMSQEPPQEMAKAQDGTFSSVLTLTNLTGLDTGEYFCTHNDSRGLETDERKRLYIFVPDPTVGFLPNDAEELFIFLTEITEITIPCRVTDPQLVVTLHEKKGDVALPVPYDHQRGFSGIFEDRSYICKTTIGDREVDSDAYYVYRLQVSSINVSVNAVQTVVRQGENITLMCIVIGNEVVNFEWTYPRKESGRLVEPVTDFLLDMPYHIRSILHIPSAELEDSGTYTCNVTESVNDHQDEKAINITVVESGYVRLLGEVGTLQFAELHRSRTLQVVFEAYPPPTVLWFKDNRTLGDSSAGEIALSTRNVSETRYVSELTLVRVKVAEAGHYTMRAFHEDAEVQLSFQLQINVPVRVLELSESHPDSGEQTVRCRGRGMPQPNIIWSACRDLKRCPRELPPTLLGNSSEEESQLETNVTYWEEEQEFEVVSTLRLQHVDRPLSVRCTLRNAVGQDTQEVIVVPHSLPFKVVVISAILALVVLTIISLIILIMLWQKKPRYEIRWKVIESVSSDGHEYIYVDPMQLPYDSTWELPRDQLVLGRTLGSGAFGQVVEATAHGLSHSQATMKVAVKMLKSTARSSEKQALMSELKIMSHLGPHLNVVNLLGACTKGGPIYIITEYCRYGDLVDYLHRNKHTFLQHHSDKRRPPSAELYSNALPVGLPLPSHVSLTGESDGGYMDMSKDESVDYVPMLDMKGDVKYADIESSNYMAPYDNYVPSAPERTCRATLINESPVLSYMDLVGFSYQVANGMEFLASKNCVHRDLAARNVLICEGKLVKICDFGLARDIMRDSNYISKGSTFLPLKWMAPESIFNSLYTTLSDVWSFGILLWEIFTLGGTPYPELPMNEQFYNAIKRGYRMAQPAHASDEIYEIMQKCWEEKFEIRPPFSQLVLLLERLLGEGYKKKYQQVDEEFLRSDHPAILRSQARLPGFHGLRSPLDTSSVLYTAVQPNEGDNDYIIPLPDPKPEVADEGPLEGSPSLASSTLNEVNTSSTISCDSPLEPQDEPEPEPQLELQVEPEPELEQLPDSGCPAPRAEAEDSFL
T2 sequence (P45985 whole entry): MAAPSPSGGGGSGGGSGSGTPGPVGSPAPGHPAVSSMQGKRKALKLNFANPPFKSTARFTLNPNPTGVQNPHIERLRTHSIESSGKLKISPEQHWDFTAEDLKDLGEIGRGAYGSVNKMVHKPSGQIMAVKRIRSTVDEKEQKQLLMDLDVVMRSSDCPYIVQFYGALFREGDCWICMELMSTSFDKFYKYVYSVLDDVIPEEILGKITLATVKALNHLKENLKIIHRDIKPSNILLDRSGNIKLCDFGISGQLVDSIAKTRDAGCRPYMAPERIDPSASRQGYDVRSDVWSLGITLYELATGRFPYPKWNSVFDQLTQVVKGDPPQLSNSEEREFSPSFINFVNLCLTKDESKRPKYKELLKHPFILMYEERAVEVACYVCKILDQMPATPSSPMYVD
Sequence of KIT V559D, T670I (P10721 26-976 V559D/T670I): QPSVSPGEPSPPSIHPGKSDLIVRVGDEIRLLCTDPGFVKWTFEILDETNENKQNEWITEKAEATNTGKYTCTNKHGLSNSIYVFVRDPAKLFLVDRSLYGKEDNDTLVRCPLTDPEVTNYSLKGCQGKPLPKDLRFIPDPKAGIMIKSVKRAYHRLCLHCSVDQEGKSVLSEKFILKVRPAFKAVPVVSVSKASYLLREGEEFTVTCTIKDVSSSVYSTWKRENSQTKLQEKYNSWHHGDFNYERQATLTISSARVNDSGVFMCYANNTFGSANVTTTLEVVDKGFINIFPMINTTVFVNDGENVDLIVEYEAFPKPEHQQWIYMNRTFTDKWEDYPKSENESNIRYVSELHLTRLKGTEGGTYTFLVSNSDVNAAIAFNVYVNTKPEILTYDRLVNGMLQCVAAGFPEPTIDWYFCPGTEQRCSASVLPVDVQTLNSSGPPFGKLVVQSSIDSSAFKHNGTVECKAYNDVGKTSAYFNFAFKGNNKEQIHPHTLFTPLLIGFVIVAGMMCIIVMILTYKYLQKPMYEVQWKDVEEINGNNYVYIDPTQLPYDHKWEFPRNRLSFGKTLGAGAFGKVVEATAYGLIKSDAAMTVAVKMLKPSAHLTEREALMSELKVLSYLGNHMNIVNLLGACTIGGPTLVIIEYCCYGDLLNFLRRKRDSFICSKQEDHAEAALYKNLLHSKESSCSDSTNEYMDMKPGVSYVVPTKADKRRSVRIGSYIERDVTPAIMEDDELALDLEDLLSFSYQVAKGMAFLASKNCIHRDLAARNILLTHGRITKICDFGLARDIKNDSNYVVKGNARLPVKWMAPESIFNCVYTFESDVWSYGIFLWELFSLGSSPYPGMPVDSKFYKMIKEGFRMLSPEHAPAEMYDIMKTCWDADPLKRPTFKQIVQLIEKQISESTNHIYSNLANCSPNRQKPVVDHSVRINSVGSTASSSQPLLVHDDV
Sequence of KIT D816V (P10721 26-976 D816V): as the sequence (P10721 26-976 V559D/T670I) above, with D534V, I645T, D791V counted along it
Sequence of KIT V559D (P10721 26-976 V559D): as the sequence (P10721 26-976 V559D/T670I) above, with I645T counted along it
Sequence of KIT V559D, V654A (P10721 26-976 V559D/V654A): as the sequence (P10721 26-976 V559D/T670I) above, with V629A, I645T counted along it
T1 sequence (P17948 27-1338): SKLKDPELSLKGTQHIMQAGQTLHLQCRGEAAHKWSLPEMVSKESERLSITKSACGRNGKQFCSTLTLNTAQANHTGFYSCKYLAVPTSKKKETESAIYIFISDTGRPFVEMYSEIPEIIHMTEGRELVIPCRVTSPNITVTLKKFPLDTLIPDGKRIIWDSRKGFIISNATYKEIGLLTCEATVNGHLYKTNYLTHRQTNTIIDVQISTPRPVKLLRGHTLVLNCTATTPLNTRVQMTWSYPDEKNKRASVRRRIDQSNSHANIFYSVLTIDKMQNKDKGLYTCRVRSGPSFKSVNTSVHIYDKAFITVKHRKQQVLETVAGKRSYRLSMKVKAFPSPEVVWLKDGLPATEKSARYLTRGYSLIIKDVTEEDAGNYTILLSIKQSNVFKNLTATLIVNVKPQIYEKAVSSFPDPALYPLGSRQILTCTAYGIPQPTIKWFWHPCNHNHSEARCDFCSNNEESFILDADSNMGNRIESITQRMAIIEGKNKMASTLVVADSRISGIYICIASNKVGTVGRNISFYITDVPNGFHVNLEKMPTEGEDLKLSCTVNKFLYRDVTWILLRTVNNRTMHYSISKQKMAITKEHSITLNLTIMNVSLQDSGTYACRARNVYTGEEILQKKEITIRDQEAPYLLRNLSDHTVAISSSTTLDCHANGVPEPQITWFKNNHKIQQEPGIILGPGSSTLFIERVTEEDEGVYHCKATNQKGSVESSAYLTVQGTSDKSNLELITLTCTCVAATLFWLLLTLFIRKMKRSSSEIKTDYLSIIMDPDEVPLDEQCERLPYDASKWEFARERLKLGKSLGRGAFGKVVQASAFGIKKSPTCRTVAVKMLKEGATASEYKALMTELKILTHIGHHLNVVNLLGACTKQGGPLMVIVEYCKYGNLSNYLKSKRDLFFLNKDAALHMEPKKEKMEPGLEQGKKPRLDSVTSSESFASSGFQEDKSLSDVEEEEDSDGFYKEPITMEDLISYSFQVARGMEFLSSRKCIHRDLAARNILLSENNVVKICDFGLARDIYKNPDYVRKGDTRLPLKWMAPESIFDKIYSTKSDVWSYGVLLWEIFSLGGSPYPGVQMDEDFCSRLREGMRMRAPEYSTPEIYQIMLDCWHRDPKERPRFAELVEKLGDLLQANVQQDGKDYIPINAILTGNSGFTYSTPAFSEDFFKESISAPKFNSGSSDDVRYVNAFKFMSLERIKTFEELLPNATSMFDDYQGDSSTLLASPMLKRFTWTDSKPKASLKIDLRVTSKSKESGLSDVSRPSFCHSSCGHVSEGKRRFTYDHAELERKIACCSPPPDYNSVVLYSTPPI
Sequence of KIT L576P (P10721 26-976 L576P): as the sequence (P10721 26-976 V559D/T670I) above, with D534V, L551P, I645T counted along it

Structure (SMILES): CCN(CC)CCNC(=O)c1c(C)[nH]c(/C=C2\C(=O)Nc3ccc(F)cc32)c1C [sunitinib, reference compound]
- animals having a high count of lung metastatic nodules [1]: 5

Structure (SMILES): CCOCOc1cc2c(c(OCOCC)c1)C(=O)O[C@@H](C)C/C=C\C(OC(=O)c1ccccc1)[C@H]1OC(C)(C)O[C@H]1CCO2 (stereo partly shown)
- ring closure, yield of all isomers ([2]; from CCOCOc1cc(OCC[C@@H]2OC(C)(C)O[C@@H]2C(/C=C\C[C@@H](C)O)OC(=O)c2ccccc2)c(C(=O)O)c(OCOCC)c1, 10.7 mM): 80%

Structure (SMILES): O=C1OCC/C=C\C(=O)[C@@H](O)[C@@H](O)[C@H](O)COc2cc(O)cc(O)c21 [1bgi]
- number of kinases outside of the set of 46 predicted kinases showing significant inhibition (STK36 and PRKD2) (panel of kinases (402)): two
- number of kinases out of 31 with more than 50% residual activity (panel of kinases (402); 31 of the 46 predicted kinases): 19
- activity compared to 1afh (Flt1): ten times less active
- remaining activity at 1 µM (MEK4): 1%
- activity compared to 1afh (PDGFRβ): ten times less active
- activity against mutant compared with wild type (Flt3 D835Y): more active than against the wild type
- sensitivity of mutant to the inhibitors (Flt3 K663Q): remained equally sensitive
- sensitivity of mutant to the inhibitors (Flt3 N841L): remained equally sensitive
- activity against mutant (KIT D816V): retained their activity
- activity against mutant (KIT L576P): retained their activity
- activity against mutant (KIT V559D): retained their activity
- activity against dual mutation (KIT V559D, T670I): not active
- activity against dual mutation (KIT V559D, V654A): not active

Structure (SMILES): CCOCOc1cc2c(c(OCOCC)c1)C(=O)O[C@@H](C)C/C=C\C(OC(=O)c1ccccc1)[C@H]1OC(C)(C)O[C@H]1CC/C=C/2 (stereo partly shown)
- ring closure, yield of all isomers ([2]; from CCOCOc1cc(/C=C/CC[C@@H]2OC(C)(C)O[C@@H]2C(/C=C\C[C@@H](C)O)OC(=O)c2ccccc2)c(C(=O)O)c(OCOCC)c1, 10.5 mM): 70%
